# According to PubChem BioAssay AID179 (DTP/NCI, 2004):
# “And” between values parts separate entries of the source, which are not always exact repeats. Identical values can stand only once. The source made the active and inactive calls.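 How the source made its calls: active means compounds giving half or more protection of infected cells from virus-caused growth loss, again on retest; inactive means the rest.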
# System: CEM cells HIV-1 protection, formazan growth assay
# Assay: NCI AIDS Antiviral Assay
# Conditions: for IC50: measured here: growth of uninfected CEM cells
# Method in brief: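 Screen of anti-HIV-1 activity in human CEM cells using a formazan-based growth measurement at five drug concentrations. Hits with 50% or greater protection were repeated, and confirmation required reproducible complete protection.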
SMILES,EC50,IC50,outcome
O=C1C=CC(=O)c2nc(-c3ccccc3)c(-c3ccccc3)nc21,0.363 µM,12 µM,
COc1cnnc2ccccc12,> 676 µM,603 µM,
NC(=O)c1c([N+](=O)[O-])cc(C(F)(F)F)cc1[N+](=O)[O-],,,inactive
O=C(OCC(OC(=O)c1ccccc1)C1CC(C(O)C2CCCCC2)C(=O)O1)c1ccccc1 (stereo unspecified),> 200 µM,21.9 µM,
N#C/C(c1nc2ccccc2[nH]1)=c1\s/c(=C/c2ccc(Cl)cc2)c(=O)n1-c1ccccc1,> 200 µM,107 µM,
Nc1c(Cl)ncnc1NCC1(CO)CCC1,> 200 µM,158 µM,
N#Cc1cc2c(n(NS(=O)(=O)c3ccccc3)c1=O)CCCCC2,> 200 µM,> 200 µM,
CCCCCCOC(=O)c1[nH]c(=O)n(CCCCCC)c(=O)c1NC(=O)CNc1ccc2c(=O)c3ccccc3[nH]c2c1,> 200 µM,1 µM,
COC(=O)CCS/C=C/C(=O)O,> 1320 µM,> 1320 µM,
O=c1[nH]c(-n2[nH]c3c(c2=O)CCCC3)nc(O)c1-c1ccccc1,> 200 µM,> 200 µM,
COc1ccc(C(=O)C(C(=O)C(=O)NCCCNC(=O)C(=O)C(C(=O)c2ccc(OC)cc2)c2ccc(OC)cc2)c2ccc(OC)cc2)cc1 (stereo unspecified),,,inactive
Cc1ccc2c(c1)CC1(Cc3cc(C)ccc3C1=O)C2=O,> 200 µM,> 200 µM,
CC1(C)Oc2cc3oc(=O)ccc3c3c2C2C1CCC(C)(O3)C2O (stereo unspecified),> 759 µM,316 µM,
CC(C)[C@H]1CO[C@@H]2O[C@H](C)C(C)C(=O)N21 (stereo partly specified),> 1170 µM,> 1170 µM,
CCCCc1c2c(nc3c1CCCC3O)/C(=C/c1ccccc1)CCC2 (stereo unspecified),> 6.31 µM,> 6.31 µM,
COc1ccccc1C(O)(c1ccccc1)C(O)(c1ccccc1)c1ccccc1OC (stereo unspecified),> 15.8 µM,> 15.8 µM,
Cc1ccc(SSc2ccc(C)cc2[N+](=O)[O-])c([N+](=O)[O-])c1,> 200 µM,9.33 µM and 14.5 µM,
CC1=N/C(=C\c2ccc(F)cc2)C(=O)O1,> 25.1 µM,> 25.1 µM,
NS(=O)(=O)c1cc(=O)[nH]c(=O)[nH]1,> 457 µM,251 µM,
c1ccc(C[P+]2(c3ccccc3)c3ccccc3-c3ccccc32)cc1,> 200 µM,> 200 µM,
O=C(Nc1nc2ccc([N+](=O)[O-])cc2s1)C(=O)C(C(=O)c1ccncc1)C1OC(=O)c2ccccc21 (stereo unspecified),> 186 µM,102 µM,

SMILES,EC50,IC50,outcome
CN(C)CN1C(=O)S/C(=C2\C(=O)N(C)c3ccc(Br)cc32)C1=O,> 200 µM,24 µM,
O=C(Nc1ccccc1)N1CC2(CN1)CNN(C(=O)Nc1ccccc1)C2,> 182 µM,> 182 µM,
Cc1cc(N)c2ccccc2[n+]1CCCCCCCCCC[n+]1c(C)cc(N)c2ccccc21,> 24.5 µM,0.155 µM,
COc1ccc2c(c1)CC1Cc3cc(OC)c(OC)cc3CN1CC2 (stereo unspecified),> 200 µM,23.4 µM,
CC(C)OCN1COCN=C1NC#N,> 447 µM,> 447 µM,
O=C(O)CCSCCCCCCCCCCSCCC(=O)O,> 74.1 µM,> 74.1 µM,
O=C(OC1CN2CCC1CC2)N(c1ccccc1)c1ccccc1 (stereo unspecified),> 200 µM,> 200 µM,
C#Cc1ccccc1N1C(=O)C=CC1=O,> 251 µM,> 251 µM,
Cc1cc2c(cc1C)N1Cc3c(ccc(C)c3C)N(C2)C1 (tested in a mixture with another compound),,,inactive
CN(C)C(=S)/N=c1\ssc(=S)n1C1CCCCC1,,,inactive
Nc1ncnc2c1ncn2C1OC(COP(=O)(O)O)C(O)C1O (stereo unspecified),> 200 µM,> 200 µM,
CCc1c2c([nH]c(=S)c1C#N)CCC2,61.7 µM,> 200 µM,
Cn1c(=O)c2nc(-c3cccnc3)cnc2n(C)c1=O,> 200 µM,> 200 µM,
Cc1cn(CCCCOC(=O)NC(CCCN=C(N)N)C(=O)O)c(=O)[nH]c1=O (stereo unspecified),> 200 µM,> 200 µM,
CC(=C/c1ccccc1)/C=C1/NC(=S)N(CN2CCCCCC2)C1=O,> 200 µM,110 µM,
CC(C)OP(=O)(OC(C)C)C(=NCCN=C(NNc1ccccc1[N+](=O)[O-])P(=O)(OC(C)C)OC(C)C)NNc1ccccc1[N+](=O)[O-],> 13.8 µM,> 13.8 µM,
CCNC(=S)N/N=C(/C)c1cccc(/C(C)=N\NC(=S)NCC)n1,> 200 µM,2.19 µM,
O=C1c2ccccc2C2(O)c3cc4ccccc4cc3OC12O (stereo unspecified),> 589 µM,44.7 µM,
Sc1cc2c(c3ccccc13)Nc1ccccc1S2,> 200 µM,123 µM,
COC1C(O)C(C)OC(OC2C(Oc3cccc4c(O)c5c(=O)oc6ccc(C)c7c(=O)oc(c34)c5c67)OC(C)C3O[C@H](c4ccccc4)OC32)C1O (stereo partly specified),> 7.24 µM,0.0912 µM,
C=C(C)CCC1C=[N+]([O-])OC(C)(C)C1(C)C (stereo unspecified),> 200 µM,107 µM,

SMILES,EC50,IC50,outcome
O=C(OCC1OC(n2nc(Cn3nnc(-c4cccnc4)n3)n(-c3cccc4ccccc34)c2=S)C(OC(=O)c2ccccc2)C1OC(=O)c1ccccc1)c1ccccc1 (stereo unspecified),> 100 µM,> 100 µM,
C(#Cc1ccccc1)SC1=C(c2ccccc2)S/C(=C(\SC#Cc2ccccc2)c2ccccc2)S1,> 200 µM,> 200 µM,
Cc1c([C@H](C)[C@@H]2NC[C@@H](C)C[C@H]2O)ccc2c1C[C@H]1[C@H]2CC=C2C[C@@H](O)CC[C@@]21C,> 1.82 µM,> 1.82 µM,
N#CCCN(C(=O)Nc1ccccc1)[C@H]1CCCC[C@@H]1N(C(=O)Nc1ccccc1)c1ccccc1,> 200 µM,33.1 µM,
CCOC(=S)SC1OC(COC(C)=O)C(OC(C)=O)C(OC(C)=O)C1OC(C)=O (stereo unspecified),> 200 µM,35.5 µM,
CCO/C=C(\C)CC1([N+](=O)[O-])C(=O)c2ccccc2C1=O,,,inactive
Cc1ccc2nc(-c3ccccc3[N+](=O)[O-])[nH]c2c1,> 269 µM,57.5 µM,
O=C(N/C(=C\c1ccccc1)c1nc2ccccc2c(=O)o1)c1ccccc1,> 200 µM,> 200 µM,
C[C@H](NC(=O)c1ccccc1SC(=O)OCCCCCl)C(N)=O,20.9 µM,> 200 µM,
COc1cc(C2SCC(=O)N2c2ccc(-n3c(-c4ccccc4)nc4ccccc4c3=O)cc2)cc(OC)c1OC (stereo unspecified),> 200 µM,178 µM,
CCOC(=O)c1ccc(/C(C)=N/NC(N)=S)cc1,,,inactive
CN(CCN(C)C(=O)CCn1cc(F)c(=O)[nH]c1=O)C(=O)CCn1cc(F)c(=O)[nH]c1=O,> 57.5 µM,> 57.5 µM,
NC(=O)CCC(NCc1c2ccccc2[n+]([O-])c2ccccc12)C(=O)O (stereo unspecified),,,inactive
CC(=O)Nc1ccc(/C=C(\NC(=O)c2ccccc2)C(=O)NNS(=O)(=O)c2ccc(C)cc2)cc1,> 52.5 µM,> 52.5 µM,
CCOC(=O)C1=C(C(=O)OCC)C2c3ccccc3C=CN2C(C(=O)OCC)=C(SC)S1 (stereo unspecified),> 7.94 µM,> 7.94 µM,
O=C1NN2CCN=C2c2ncccc21,> 933 µM,> 933 µM,
CSc1ccc(C(=C=C=C(c2ccc(SC)s2)c2ccc(SC)s2)c2ccc(SC)s2)s1,> 200 µM,> 200 µM,
CCCCCCCCCCCCCC1CCC(CC)N1 (stereo unspecified),> 331 µM,> 331 µM,
Cc1ccc(-c2c3nc(c(-c4ccc(C)cc4)c4ccc([nH]4)c(-c4ccc(C)cc4)c4nc(c(-c5ccncc5)c5ccc2[nH]5)C=C4)C=C3)cc1.Cc1ccc(-c2c3nc(c(-c4ccc(C)cc4)c4ccc([nH]4)c(-c4ccc(C)cc4)c4nc(c(-c5ccncc5)c5ccc2[nH]5)C=C4)C=C3)cc1.O=S(=O)([O-])C(F)(F)F.[Pd+2].c1ccc([PH+](CCC[PH+](c2ccccc2)c2ccccc2)c2ccccc2)cc1,> 50.1 µM,3.47 µM,
O=C1OCCN1CCO,> 200 µM,> 200 µM,
CC(=O)NNc1nc(C)c(C(/C=C/c2ccc([N+](=O)[O-])cc2)=N/NC(N)=S)s1,> 69.2 µM,> 69.2 µM,

SMILES,EC50,IC50,outcome
CN1CCCCCCC1CO (stereo unspecified),,,inactive
c1ccc2c(N3CC3)nncc2c1,> 200 µM,> 200 µM,
Cn1c(=O)c2c(nc(NCC[N+](C)(C)C)n2C)n(C)c1=O,,,inactive
CC1(O)CCC2(C)C(=O)C1(C)CCC21OCCO1 (stereo unspecified),,,inactive
S=c1[nH]c(=S)c2sc(=S)n(-c3ccccc3)c2[nH]1,> 115 µM,56.2 µM,
O=C(c1ccccc1)C(O)(CC(c1ccccc1)[P+](c1ccccc1)(c1ccccc1)c1ccccc1)c1ccccc1 (stereo unspecified),> 200 µM,1.17 µM,
Nc1ccc(Cl)c(-c2nc3ccccc3[nH]2)c1,> 77.6 µM,> 77.6 µM,
Cc1cc(N(CCC#N)CCC#N)ccc1/C(N=Nc1cccc([N+](=O)[O-])c1)=N/NC(=O)c1cc(Cl)ccc1O,> 200 µM,12 µM,
O=C1C[C@@]23CCC4(CC2CCC[C@H]3O1)OCCO4 (stereo partly specified),,,inactive
O=C(Nc1ccc(Cl)c(Cl)c1)Nc1ccc([N+](=O)[O-])cn1,> 200 µM,> 200 µM,
CC1(CCCCO)C=CC(S(=O)(=O)c2ccccc2)CC1 (stereo unspecified),,,inactive
COCN(C)c1nc(N(C)C)nc(N(C)C)n1,> 100 µM,70.8 µM,
CC(C)c1ccc(C(=O)c2ccccc2C(=O)O)cc1,> 200 µM,> 200 µM,
CCCCc1ccc(Nc2cc(=O)n(C)c(=O)[nH]2)cc1,> 200 µM,> 200 µM,
CC(=O)N(O)c1ccc(Cl)cc1,> 200 µM,> 200 µM,
C/C(=N\NC(=S)N1CCC(C2CCN(C(=S)N/N=C(\C)c3ccccn3)CC2)CC1)c1ccccn1,> 3.8 µM,1.91 µM,
COc1ccc(CN2COc3c(ccc4ccccc34)C2)cc1,> 200 µM,10.2 µM,
CCOC(=O)c1ccc(CS(=O)(=O)c2ccc(C)cc2)c([N+](=O)[O-])c1,> 100 µM,> 100 µM,
COc1cccc(-c2cc(C(=O)Nc3ccc(Cl)cc3)nc(N)n2)c1,> 72.4 µM,52.5 µM,
CCCCCCCNC(C)(C)C(SSSC(c1ccc(Cl)cc1)C(C)(C)NCCCCCCC)c1ccc(Cl)cc1 (stereo unspecified),> 100 µM,> 100 µM,
CCCc1cc(=O)oc2c3c(c4c(c12)OC(C)(C)CC4)O[C@H](C)C(C)C3=O (stereo partly specified),12.3 µM,186 µM,
